Experimental data taken from PubChem BioAssay AID248 (DTP/NCI, 2004).
Several values for one entry are separate records, joined by “and”; a condition that tells them apart may be missing. Equal values may be shown once. Toxic doses and inconclusive results are not listed.

System: L1210 leukemia ip in BDF1 mice, survival T/C
Test: NCI In Vivo Anticancer Drug Screen. Data for tumor model L1210 Leukemia (intraperitoneal) in B6D2F1 (BDF1) mice
Conditions: endpoint: mean survival time, higher = longer survival
How it was run: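 Each compound was tested against a transplantable tumor grown in mice. The endpoint was survival, with treated animals benchmarked against vehicle controls as a simple ratio.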

[1] = dose: 25.0 mg/kg/injection, schedule: Q01DX009 (ip), vehicle: saline
[2] = dose: 100.0 mg/kg/injection, schedule: Q01DX009 (ip), vehicle: saline with Tween-80
[3] = dose: 100.0 mg/kg/injection, schedule: Q04DX002 (ip), vehicle: saline with Tween-80
[4] = dose: 100.0 mg/kg/injection, schedule: Q04DX003 (ip), vehicle: Klucel (hydroxypropylcellulose) (HPC)
[5] = dose: 200.0 mg/kg/injection, schedule: Q04DX003 (ip), vehicle: Klucel (hydroxypropylcellulose) (HPC)
[6] = dose: 400.0 mg/kg/injection, schedule: Q04DX003 (ip), vehicle: Klucel (hydroxypropylcellulose) (HPC)
[7] = dose: 100.0 mg/kg/injection, schedule: Q01DX009 (ip), vehicle: Klucel (hydroxypropylcellulose) (HPC)
[8] = dose: 200.0 mg/kg/injection, schedule: Q01DX009 (ip), vehicle: Klucel (hydroxypropylcellulose) (HPC)
[9] = dose: 400.0 mg/kg/injection, schedule: Q01DX009 (ip), vehicle: Klucel (hydroxypropylcellulose) (HPC)
[10] = dose: 100.0 mg/kg/injection, schedule: Q01DX009 (ip), vehicle: saline
[11] = dose: 100.0 mg/kg/injection, schedule: Q04DX003 (ip), vehicle: saline
[12] = dose: 200.0 mg/kg/injection, schedule: Q04DX003 (ip), vehicle: saline
[13] = dose: 100.0 mg/kg/injection, schedule: Q04DX003 (ip), vehicle: saline with Tween-80
[14] = dose: 200.0 mg/kg/injection, schedule: Q01DX001 (ip), vehicle: saline
[15] = dose: 400.0 mg/kg/injection, schedule: Q01DX001 (ip), vehicle: saline
[16] = dose: 200.0 mg/kg/injection, schedule: Q04DX003 (ip), vehicle: saline with Tween-80

C1OC1C1CO1 (centres undefined)
T/C (dose: 6.25 mg/kg/injection, schedule: Q01DX009 (ip), vehicle: saline): 92 % of control | T/C (dose: 10.0 mg/kg/injection, schedule: Q01DX001 (ip), vehicle: saline): 106 % of control | T/C (dose: 12.5 mg/kg/injection, schedule: Q01DX009 (ip), vehicle: saline): 104 % of control | T/C (dose: 12.5 mg/kg/injection, schedule: Q04DX003 (ip), vehicle: saline): 110 % of control | T/C (dose: 20.0 mg/kg/injection, schedule: Q01DX001 (ip), vehicle: saline): 103 % of control | T/C [1]: 114 % of control | T/C (dose: 25.0 mg/kg/injection, schedule: Q04DX003 (ip), vehicle: saline): 119 % of control | T/C (dose: 40.0 mg/kg/injection, schedule: Q01DX001 (ip), vehicle: saline): 114 % of control | T/C (dose: 44.0 mg/kg/injection, schedule: Q01DX001 (ip), vehicle: saline): 105 % of control | T/C (dose: 50.0 mg/kg/injection, schedule: Q04DX003 (ip), vehicle: saline): 105 % of control

CCN(CC)CC(=O)NCC(CCN(C)C)(CCN(C)C)c1cccc2ccccc12
T/C (dose: 25.0 mg/kg/injection, schedule: Q04DX002 (ip), vehicle: saline with Tween-80): 115 % of control | T/C (dose: 50.0 mg/kg/injection, schedule: Q04DX002 (ip), vehicle: saline with Tween-80): 96 % of control | T/C [2]: 93 % of control | T/C [3]: 107 % of control

O=c1[nH]cnc2nc(SCc3ccccc3NCBr)[nH]c12
T/C (dose: 31.3 mg/kg/injection, schedule: Q04DX002 (ip), vehicle: Klucel (hydroxypropylcellulose) (HPC)): 91 % of control | T/C (dose: 62.5 mg/kg/injection, schedule: Q04DX002 (ip), vehicle: Klucel (hydroxypropylcellulose) (HPC)): 91 % of control | T/C (dose: 125.0 mg/kg/injection, schedule: Q04DX002 (ip), vehicle: Klucel (hydroxypropylcellulose) (HPC)): 88 % of control

C=CCCCCCCCCC(=O)N(C)OC
T/C (dose: 25.0 mg/kg/injection, schedule: Q01DX009 (ip), vehicle: saline with Tween-80): 97 % of control | T/C (dose: 50.0 mg/kg/injection, schedule: Q01DX009 (ip), vehicle: saline with Tween-80): 105 % of control | T/C [2]: 94 % of control and 92 % of control

Cc1ccccc1-n1c(O)c(N=Nc2ccc(Br)cc2)c(=O)n(-c2ccccc2)c1=S
T/C (dose: 100.0 mg/kg/injection, schedule: Q01DX001 (ip), vehicle: Klucel (hydroxypropylcellulose) (HPC)): 94 % of control | T/C (dose: 200.0 mg/kg/injection, schedule: Q01DX001 (ip), vehicle: Klucel (hydroxypropylcellulose) (HPC)): 94 % of control | T/C (dose: 400.0 mg/kg/injection, schedule: Q01DX001 (ip), vehicle: Klucel (hydroxypropylcellulose) (HPC)): 91 % of control

O=C(Nc1ccc(F)cc1)Nc1cc([N+](=O)[O-])ccc1F
T/C [4]: 117 % of control | T/C [5]: 102 % of control | T/C [6]: 101 % of control

O=C(O)/C=C\C(=O)Nc1ccc2c(c1)OCO2
T/C [7]: 98 % of control | T/C [8]: 94 % of control | T/C [9]: 91 % of control

Clc1ccc(OCOc2ccc(Cl)cc2)cc1
T/C [4]: 106 % of control | T/C [5]: 98 % of control | T/C [6]: 92 % of control

NCCc1ccc2c(c1)OCO2
T/C [1]: 109 % of control | T/C (dose: 50.0 mg/kg/injection, schedule: Q01DX009 (ip), vehicle: saline): 107 % of control | T/C [10]: 100 % of control and 107 % of control | T/C [11]: 97 % of control | T/C [12]: 102 % of control

Cc1cccc(C)c1N=C=S
T/C (dose: 25.0 mg/kg/injection, schedule: Q04DX003 (ip), vehicle: saline with Tween-80): 100 % of control | T/C (dose: 50.0 mg/kg/injection, schedule: Q04DX003 (ip), vehicle: saline with Tween-80): 96 % of control | T/C [13]: 98 % of control

O=C1c2cc(Cl)cc(Cl)c2-c2c(NC(=O)C(Cl)Cl)cc(Cl)cc21
T/C [7]: 91 % of control | T/C [4]: 95 % of control | T/C [5]: 98 % of control | T/C [6]: 93 % of control

Cc1ccc2c(c1)C(=O)CCC2
T/C (dose: 177.0 mg/kg/injection, schedule: Q01DX001 (ip), vehicle: saline): 94 % of control | T/C [14]: 95 % of control | T/C (dose: 266.0 mg/kg/injection, schedule: Q01DX001 (ip), vehicle: saline): 94 % of control | T/C [15]: 94 % of control and 95 % of control | T/C (dose: 600.0 mg/kg/injection, schedule: Q01DX001 (ip), vehicle: saline): 96 % of control

O=C(Cc1c[nH]c2ccccc12)N/N=C\c1c[nH]c2ccccc12
T/C [14]: 97 % of control | T/C [15]: 92 % of control

OCCCCCCCCCCCC[n+]1ccccc1
T/C (dose: 87.5 mg/kg/injection, schedule: Q01DX001 (ip), vehicle: saline): 105 % of control

CCOC(=O)C(C(=O)CC)=P(c1ccccc1)(c1ccccc1)c1ccccc1
T/C (dose: 100.0 mg/kg/injection, schedule: Q01DX005 (ip), vehicle: Klucel (hydroxypropylcellulose) (HPC)): 113 % of control | T/C [7]: 97 % of control | T/C (dose: 200.0 mg/kg/injection, schedule: Q01DX005 (ip), vehicle: Klucel (hydroxypropylcellulose) (HPC)): 88 % of control | T/C [8]: 108 % of control | T/C (dose: 400.0 mg/kg/injection, schedule: Q01DX005 (ip), vehicle: Klucel (hydroxypropylcellulose) (HPC)): 98 % of control | T/C [9]: 110 % of control

c1ccc(NC2C(=C(c3ccccc3)c3ccccc3)N3CCC2CC3)cc1 (centres undefined)
T/C [4]: 95 % of control | T/C [5]: 94 % of control | T/C [6]: 95 % of control

CC12CCC(=O)C=C1CCC1C2C(=O)CC2(C)C1CCC2(O)C(=O)CSc1ncnc2nc[nH]c12 (centres undefined)
T/C (dose: 100.0 mg/kg/injection, schedule: Q01DX001 (sc), vehicle: steriod suspending solution): 103 % of control | T/C (dose: 200.0 mg/kg/injection, schedule: Q01DX001 (sc), vehicle: steriod suspending solution): 106 % of control | T/C (dose: 400.0 mg/kg/injection, schedule: Q01DX001 (sc), vehicle: steriod suspending solution): 112 % of control

N.N.N.N.N.N#CN=C(N)N.[Co+3].[O-][Cl+3]([O-])([O-])[O-]
T/C (dose: 100.0 mg/kg/injection, schedule: Q04DX002 (ip), vehicle: saline): 171 % of control

CS(=O)(=O)OCCN(CCOS(C)(=O)=O)c1ccc(C=Nc2ccc(-c3cnc(-c4ccc(Cl)cc4)s3)cc2)c(Cl)c1
T/C (dose: 25.0 mg/kg/injection, schedule: Q01DX009 (ip), vehicle: Klucel (hydroxypropylcellulose) (HPC)): 98 % of control | T/C (dose: 50.0 mg/kg/injection, schedule: Q01DX009 (ip), vehicle: Klucel (hydroxypropylcellulose) (HPC)): 107 % of control | T/C [7]: 109 % of control

Cc1ccc(S(=O)(=O)ON/N=C2\C(=O)C3CCC2C3)cc1 (centres undefined)
T/C [3]: 95 % of control

O=C1CCC(=O)N1c1ccccc1
T/C (dose: 100.0 mg/kg/injection, schedule: Q04DX002 (ip), vehicle: Klucel (hydroxypropylcellulose) (HPC)): 96 % of control | T/C (dose: 200.0 mg/kg/injection, schedule: Q04DX002 (ip), vehicle: Klucel (hydroxypropylcellulose) (HPC)): 92 % of control | T/C (dose: 400.0 mg/kg/injection, schedule: Q04DX002 (ip), vehicle: Klucel (hydroxypropylcellulose) (HPC)): 92 % of control

Cc1cc([N+](=O)[O-])ccc1P(=O)(O)O
T/C [13]: 100 % of control | T/C [16]: 108 % of control

O=C(Nc1cccc([N+](=O)[O-])c1)N1CCCC1
T/C (dose: 100.0 mg/kg/injection, schedule: Q01DX001 (ip), vehicle: carboxymethylcellulose (CMC)): 98 % of control | T/C (dose: 200.0 mg/kg/injection, schedule: Q01DX001 (ip), vehicle: carboxymethylcellulose (CMC)): 102 % of control | T/C (dose: 400.0 mg/kg/injection, schedule: Q01DX001 (ip), vehicle: carboxymethylcellulose (CMC)): 100 % of control

O=S(=O)(c1ccc2ccccc2c1)C1CC1c1ccccc1 (centres undefined)
T/C (dose: 100.0 mg/kg/injection, schedule: Q01DX001 (ip), vehicle: acetone): 92 % of control | T/C (dose: 200.0 mg/kg/injection, schedule: Q01DX001 (ip), vehicle: acetone): 98 % of control | T/C (dose: 400.0 mg/kg/injection, schedule: Q01DX001 (ip), vehicle: acetone): 93 % of control

COC(=O)C1C2CC(=O)C(C2)C1C(=O)OC (centres undefined)
T/C [10]: 96 % of control | T/C [13]: 98 % of control | T/C [11]: 100 % of control | T/C (dose: 200.0 mg/kg/injection, schedule: Q01DX009 (ip), vehicle: saline): 105 % of control | T/C [16]: 86 % of control | T/C [12]: 100 % of control | T/C (dose: 400.0 mg/kg/injection, schedule: Q01DX009 (ip), vehicle: saline): 99 % of control | T/C (dose: 400.0 mg/kg/injection, schedule: Q04DX003 (ip), vehicle: saline with Tween-80): 91 % of control | T/C (dose: 400.0 mg/kg/injection, schedule: Q04DX003 (ip), vehicle: saline): 96 % of control
